Reference: patent publication US4921850A, “3-propenylcephem derivative” (Eisai Co., Ltd., priority 1986, dated 1990)
In brackets after ≈: the same amount, converted by molar mass. Read-outs that look alike come from different tables or passages of the source.

Key:
Assay in all cases: Anti-bacterial activity (MIC), agar dilution
Type in all cases: cell-based
[1] = tested on: Pseud. aeruginosa EP-01; details: Pseud. aeruginosa EP-01, agar dilution, about 10^6 CFU/ml, 18 hours, 37° C.
Procedure, shortened: (§1)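 Read-out is MIC (μg/ml) after 18 hours at 37° C on Mueller-Hinton agar with twofold antibiotic series. Inoculum: overnight broth cultures diluted to ~10^6 CFU/ml, spotted.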

[2] = tested on: Kleb. pneumoniae EK-6; details: Kleb. pneumoniae EK-6, agar dilution, about 10^6 CFU/ml, 18 hours, 37° C.
Procedure, shortened: as §1

[3] = tested on: Staph. aureus 209-P; details: Staph. aureus 209-P, agar dilution, about 10^6 CFU/ml, 18 hours, 37° C.
Procedure, shortened: as §1

[4] = tested on: Morganella morganii EP-14; details: about 10^6 CFU/ml, 37° C.
Procedure, shortened: as §1

[5] = tested on: Escher. coli NIHJ; details: Escher. coli NIHJ, agar dilution, about 10^6 CFU/ml, 18 hours, 37° C.
Procedure, shortened: as §1

[6] = tested on: Ser. marcescens ES-75; details: Ser. marcescens ES-75, agar dilution, about 10^6 CFU/ml, 18 hours, 37° C.
Procedure, shortened: as §1

[7] = Pseudomonas aeruginosa, EP01, 18 h, read-out: MIC
[8] = Klebsiella pneumoniae, EK6, 18 h, read-out: MIC
[9] = Staphylococcus aureus, 209P, 18 h, read-out: MIC
[10] = Morganella morganii, EP14, 18 h, read-out: MIC
[11] = Escherichia coli, 18 h, read-out: MIC
[12] = Serratia marcescens, ES75, 18 h, read-out: MIC

MIC [1, 7] [µg/mL]	MIC [2, 8] [µg/mL]	MIC [3, 9] [µg/mL]	MIC [4, 10] [µg/mL]	MIC [5, 11] [µg/mL]	MIC [6, 12] [µg/mL]	MIC [1] [µg/mL]	MIC [2] [µg/mL]	MIC [3] [µg/mL]	MIC ([4]; 18 hours) [µg/mL]	MIC [5] [µg/mL]	MIC [6] [µg/mL]	Structure (SMILES)
–	–	–	–	–	–	0.8 (≈ 1.4 µM)	≤ 0.025	0.2 (≈ 0.35 µM)	≤ 0.025	≤ 0.025	≤ 0.025	C[N+]1(CC=CC2=C(C(=O)[O-])N3C(=O)C(NC(=O)C(=NOCF)c4nsc(N)n4)C3SC2)CC(O)CC1CO (stereo not drawn) [Example 89-2]
0.8 (≈ 1.4 µM)	≤ 0.025	0.2 (≈ 0.349 µM)	≤ 0.025	≤ 0.025	≤ 0.025	–	–	–	–	–	–	C[N+](C)(C/C=C/C1=C(C(=O)[O-])N2C(=O)[C@@H](NC(=O)/C(=N\OCF)c3nsc(N)n3)[C@H]2SC1)CC(=O)NCO [Example 92]
0.8 (≈ 1.44 µM)	≤ 0.025	0.2 (≈ 0.359 µM)	≤ 0.025	≤ 0.025	≤ 0.025	–	–	–	–	–	–	C[N+](C)(C/C=C/C1=C(C(=O)[O-])N2C(=O)[C@@H](NC(=O)/C(=N\OCF)c3nsc(N)n3)[C@H]2SC1)CCC(N)=O [Example 93]
0.8 (≈ 1.43 µM)	≤ 0.025	0.2 (≈ 0.357 µM)	≤ 0.025	0.05 (≈ 0.0893 µM)	≤ 0.025	–	–	–	–	–	–	C[N+](C)(C/C=C/C1=C(C(=O)[O-])N2C(=O)[C@@H](NC(=O)/C(=N\OCF)c3nsc(N)n3)[C@H]2SC1)C(CO)CO [Example 95]
0.8 (≈ 1.4 µM)	≤ 0.025	0.2 (≈ 0.35 µM)	≤ 0.025	≤ 0.025	≤ 0.025	–	–	–	–	–	–	CNC(=O)CC[N+](C)(C)C/C=C/C1=C(C(=O)[O-])N2C(=O)[C@@H](NC(=O)/C(=N\OCF)c3nsc(N)n3)[C@H]2SC1 [Example 97]
3.13 (≈ 5.35 µM)	0.05 (≈ 0.0855 µM)	0.4 (≈ 0.684 µM)	≤ 0.025	0.05 (≈ 0.0855 µM)	0.05 (≈ 0.0855 µM)	–	–	–	–	–	–	CN(C)C(=O)CC[N+](C)(C)C/C=C/C1=C(C(=O)[O-])N2C(=O)[C@@H](NC(=O)/C(=N\OCF)c3nsc(N)n3)[C@H]2SC1 [Example 98]
1.56 (≈ 2.87 µM)	≤ 0.025	0.2 (≈ 0.368 µM)	≤ 0.025	≤ 0.025	≤ 0.025	–	–	–	–	–	–	COCC[N+](C)(C)C/C=C/C1=C(C(=O)[O-])N2C(=O)[C@@H](NC(=O)/C(=N\OCF)c3nsc(N)n3)[C@H]2SC1 [Example 99]
1.56 (≈ 2.76 µM)	≤ 0.025	0.2 (≈ 0.354 µM)	≤ 0.025	≤ 0.025	0.05 (≈ 0.0884 µM)	–	–	–	–	–	–	C[N+](C)(C/C=C/C1=C(C(=O)[O-])N2C(=O)[C@@H](NC(=O)/C(=N\OCF)c3nsc(N)n3)[C@H]2SC1)Cc1ccn[nH]1 [Example 102]
3.13 (≈ 5.53 µM)	0.05 (≈ 0.0884 µM)	0.4 (≈ 0.707 µM)	0.05 (≈ 0.0884 µM)	≤ 0.025	0.1 (≈ 0.177 µM)	–	–	–	–	–	–	C[N+](C)(C/C=C/C1=C(C(=O)[O-])N2C(=O)[C@@H](NC(=O)/C(=N\OCF)c3nsc(N)n3)[C@H]2SC1)Cc1cnc[nH]1 [Example 106]
1.56 (≈ 2.78 µM)	≤ 0.025	0.2 (≈ 0.357 µM)	≤ 0.025	0.05 (≈ 0.0892 µM)	0.05 (≈ 0.0892 µM)	–	–	–	–	–	–	Nc1nc(/C(=N/OCF)C(=O)N[C@@H]2C(=O)N3C(C(=O)[O-])=C(/C=C/C[N+](N)(CCO)CCO)CS[C@H]23)ns1 [Example 107]
0.8 (≈ 1.43 µM)	≤ 0.025	0.2 (≈ 0.357 µM)	≤ 0.025	0.05 (≈ 0.0892 µM)	0.05 (≈ 0.0892 µM)	–	–	–	–	–	–	C[N+](C)(C/C=C/C1=C(C(=O)[O-])N2C(=O)[C@@H](NC(=O)/C(=N\OC(F)F)c3nsc(N)n3)[C@H]2SC1)CC(N)=O [Example 114, 7β-[2-(5-Amino-1,2,4-thiadiazol-3-yl)-(Z)-2-difluoromethoxyiminoacetamido]-3-[(E)-3-(dimethylcarbamoylmethylammonio)-1-propen-1-yl]-3-cephem-4-carboxylate]
0.4 (≈ 0.737 µM)	≤ 0.025	0.2 (≈ 0.369 µM)	≤ 0.025	≤ 0.025	0.1 (≈ 0.184 µM)	–	–	–	–	–	–	C[N+](C)(C/C=C/C1=C(C(=O)[O-])N2C(=O)[C@@H](NC(=O)/C(=N\OCF)c3nsc(N)n3)[C@H]2SC1)CC(N)=O [Example 118, 7β-[2-(5-Amino-1,2,4-thiadiazol-3-yl)-(Z)-2-fluoromethoxyiminoacetamido]-3-[(E)-3-(carbamoylmethyldimethylammonio)-1-propen-1-yl]-3-cephem-4-carboxylate]

The remaining lines, values behind:

Structure (SMILES)	MIC [1, 7] [µg/mL]	MIC [2, 8] [µg/mL]	MIC [3, 9] [µg/mL]	MIC [4, 10] [µg/mL]	MIC [5, 11] [µg/mL]	MIC [6, 12] [µg/mL]	MIC [1] [µg/mL]	MIC [2] [µg/mL]	MIC [3] [µg/mL]	MIC ([4]; 18 hours) [µg/mL]	MIC [5] [µg/mL]	MIC [6] [µg/mL]
C[N+]1(CC=CC2=C(C(=O)[O-])N3C(=O)C(NC(=O)C(=NOCF)c4nsc(N)n4)C3SC2)CC(O)CC1CO (stereo not drawn) [Example 89-1]	0.8 (≈ 1.4 µM)	≤ 0.025	0.2 (≈ 0.35 µM)	≤ 0.025	≤ 0.025	≤ 0.025	–	–	–	–	–	–
C[N+]1(C/C=C/C2=C(C(=O)[O-])N3C(=O)[C@@H](NC(=O)/C(=N\OCF)c4nsc(N)n4)[C@H]3SC2)CCC(O)CC1 (stereo partly drawn) [Example 90]	0.8 (≈ 1.44 µM)	≤ 0.025	0.2 (≈ 0.36 µM)	0.05 (≈ 0.09 µM)	0.05 (≈ 0.09 µM)	≤ 0.025	–	–	–	–	–	–
Nc1nc(/C(=N/OCF)C(=O)N[C@@H]2C(=O)N3C(C(=O)[O-])=C(/C=C/C[N+]4(CCO)CCC(O)CC4)CS[C@H]23)ns1 (stereo partly drawn) [Example 91]	1.56 (≈ 2.66 µM)	≤ 0.025	0.2 (≈ 0.342 µM)	≤ 0.025	0.05 (≈ 0.0854 µM)	≤ 0.025	–	–	–	–	–	–
C[N+]1(C/C=C/C2=C(C(=O)[O-])N3C(=O)[C@@H](NC(=O)/C(=N\OCF)c4nsc(N)n4)[C@H]3SC2)CCCN(C(N)=O)CC1 (stereo partly drawn) [Example 94]	0.8 (≈ 1.34 µM)	≤ 0.025	0.2 (≈ 0.335 µM)	≤ 0.025	≤ 0.025	≤ 0.025	–	–	–	–	–	–
NC(=O)N1CCC[N+](C/C=C/C2=C(C(=O)[O-])N3C(=O)[C@@H](NC(=O)/C(=N\OCF)c4nsc(N)n4)[C@H]3SC2)(CCO)CC1 (stereo partly drawn) [Example 101]	1.56 (≈ 2.49 µM)	≤ 0.025	0.2 (≈ 0.319 µM)	≤ 0.025	0.05 (≈ 0.0797 µM)	≤ 0.025	–	–	–	–	–	–
Nc1ccc[n+](C/C=C/C2=C(C(=O)[O-])N3C(=O)[C@@H](NC(=O)/C(=N\OCF)c4nsc(N)n4)[C@H]3SC2)c1 [Example 103]	3.13 (≈ 5.86 µM)	≤ 0.025	0.1 (≈ 0.187 µM)	≤ 0.025	≤ 0.025	≤ 0.025	–	–	–	–	–	–
Nc1nc(/C(=N/OCF)C(=O)N[C@@H]2C(=O)N3C(C(=O)[O-])=C(/C=C/C[n+]4ccc(C(=O)N5CCOCC5)cc4)CS[C@H]23)ns1 [Example 108]	3.13 (≈ 4.95 µM)	≤ 0.025	0.4 (≈ 0.632 µM)	0.05 (≈ 0.079 µM)	0.05 (≈ 0.079 µM)	0.1 (≈ 0.158 µM)	–	–	–	–	–	–
Nc1nc(/C(=N/OC(F)F)C(=O)N[C@@H]2C(=O)N3C(C(=O)[O-])=C(/C=C/C[n+]4ccc(C(=O)O)cc4)CS[C@H]23)ns1 [Example 115]	3.13 (≈ 5.38 µM)	≤ 0.025	0.8 (≈ 1.38 µM)	≤ 0.025	≤ 0.025	0.05 (≈ 0.086 µM)	–	–	–	–	–	–
Nc1nc(/C(=N/OC(F)F)C(=O)N[C@@H]2C(=O)N3C(C(=O)[O-])=C(/C=C/C[N+]45CCN(CC4)CC5)CS[C@H]23)ns1 [Example 116]	1.56 (≈ 2.73 µM)	≤ 0.025	0.2 (≈ 0.351 µM)	≤ 0.025	≤ 0.025	≤ 0.025	–	–	–	–	–	–
Nc1nc(/C(=N/OC(F)F)C(=O)N[C@@H]2C(=O)N3C(C(=O)[O-])=C(/C=C/C[N+](CCO)(CCO)CCO)CS[C@H]23)ns1 [Example 117]	1.56 (≈ 2.57 µM)	0.05 (≈ 0.0823 µM)	0.4 (≈ 0.658 µM)	≤ 0.025	0.05 (≈ 0.0823 µM)	0.2 (≈ 0.329 µM)	–	–	–	–	–	–
